Target: T1, CCR2 (Homo sapiens, UniProt P41597)
T1 construct: Membranes were prepared from THP-1 cells; endogenous in cells; host or cells: THP-1 (human acute monocytic leukaemia cells), membrane preparation
T1 sequence (P41597 1-360 isoform P41597-2): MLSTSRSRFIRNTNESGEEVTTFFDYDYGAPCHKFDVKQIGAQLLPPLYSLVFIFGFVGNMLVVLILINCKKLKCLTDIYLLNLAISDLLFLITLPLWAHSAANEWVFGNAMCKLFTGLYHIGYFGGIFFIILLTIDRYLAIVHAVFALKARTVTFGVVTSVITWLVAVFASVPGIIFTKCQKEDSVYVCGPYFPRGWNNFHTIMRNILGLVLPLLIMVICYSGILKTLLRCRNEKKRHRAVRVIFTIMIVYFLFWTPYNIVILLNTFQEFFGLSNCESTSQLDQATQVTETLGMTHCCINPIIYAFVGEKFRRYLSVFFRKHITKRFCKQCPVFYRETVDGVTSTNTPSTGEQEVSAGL
Assay: CCR2 receptor membrane binding assay ([125I]MCP-1, THP-1 membranes, SPA beads)
Conditions: dissociation constant hKi; THP-1 cell membranes, [125I]MCP-1, bound radioactivity after 8 h
Experimental: The above exemplary substances have been tested for binding to CCR2 using a binding assay as outlined herein below:
THP-1 cells (human acute monocytic leukaemia cells) were cultured under standardized conditions at 37° C. and 5% CO2 in a humidified incubator. THP-1 cells were cultivated in RPMI 1640 medium (Gibco 21875) containing 1% MEM-NEAA (Gibso 11140) 2 mM L-glutamine, 1.5 g/L sodium bicarbonate, 4.5 g/L glucose, 10 mM HEPES and 1.0 mM sodium pyruvate, 90%; 10% fetal calf serum (FCS Gibco 10500-064).
Membranes were prepared from THP-1 cells. THP-1 cells were centrifuged at 300×g at 4° C. for 10 min. The cell pellet was resuspendet in Phosphate Buffer Saline (PBS, including 10 μM Pefabloc and a protease inhibitor mix ‘complete’, Boehringer Mannheim (1 tablet/50 ml)), to a concentration of […]. The membrane preparation was performed by disrupting the cells by nitrogen […] (at 50 bar, for 1 h) in a “Nitrogen Bombe” (Parr Instrument). Cell debris was removed by centrifugation (800×g at 4° C., 1 min). The supernatant was centrifuged at 80000×g, 4° C. for 30 min to sediment the cell membranes. Usually 50 mg of protein (Bradford assay) were yielded from 1×10E9 cells. The membranes were resuspendet in 25 mM HEPES, 25 mM MgCl2, 1 mM CaCl2, 10% Glycerine for storage in aliquots at −80° C. in 25 mM HEPES, 25 mM MgCl2, 1 mM CaCl2, 10% Glycerine and stored at −80° C.
Receptor Membrane Binding Assay:
Perkin Elmer NEX 332 Jod 125 MCP-1, Stock: 2200 Ci/mmol solved in 2000 μl assay buffer, stored at −20° C. THP-1 membrane were adjusted with 25 mM HEPES, pH 7.2; 5 mM MgCl2; 0.5 mM CaCl2; 0.2% BSA assay buffer to a concentration of 2.5 μg/15 μl. Amersham Biosciences PVT-WGA Beads (RPNQ0001) were adjusted with assay buffer to a concentration of 0.24 mg/30 μl. For preparation of the membrane-bead-suspension membranes and beads were incubated for 30 min at RT under rotation (60 rpm) with a ratio of 1:2. Test compounds dissolved in 100% DMSO to a concentration of 10 mM and are further diluted with 100% DMSO to 1 mM. All additional compound dilutions were obtained with assay buffer, final 1% DMSO. Compounds, membrane-bead-suspension and [125I]MCP-1 (ca. 25000 cpm/10 μl) were incubated. Bound radioactivity was determined by scintillation counter after 8 h. Determination of affinity of test compounds (dissociation constant hKi) is calculated by iterative fitting of experimental data using the “easy sys” program, which is based on law of mass action (Schittkowski K. (1994), Numerische Mathematik, Vol. 68, 129-142).

Row | Ki | Structure (SMILES)
1 | 27 nM | Cc1c(NC[C@@H]2CCC[C@H](c3ccccc3)O2)ncnc1C(=O)N1CCC(N2CCC(N(C)S(C)(=O)=O)CC2)CC1 (single isomer, unassigned) [Example 12]
2 | 486 nM | Cc1c(NC[C@@H]2CCC[C@H](c3ccccc3)O2)ncnc1C(=O)N1CCC(N2CCC(N(C)S(C)(=O)=O)CC2)CC1 (single isomer, unassigned) [Example 13]
3 | 8 nM | Cc1ccc([C@@H]2CCC[C@H](CNc3ncnc(C(=O)N4CCC(N5CCC(N(C)S(C)(=O)=O)CC5)CC4)c3C)O2)cc1 [Example 1]
4 | 151 nM | Cc1c(NC[C@@H]2CCC[C@H](c3ccc(C(F)(F)F)cc3)O2)ncnc1C(=O)N1CCC(N2CCC(N(C)S(C)(=O)=O)CC2)CC1 [Example 2]
5 | 203 nM | COC1CCN(C2CCN(C(=O)c3ncnc(NC[C@@H]4CCC[C@H](c5cccc(C(F)(F)F)c5)O4)c3C)CC2)CC1 [Example 3]
6 | 26 nM | COC1CCN(C2CCN(C(=O)c3ncnc(NC[C@H]4CCC[C@@H](c5ccc(C(F)(F)F)cc5)O4)c3C)CC2)CC1 [Example 4]
7 | 190 nM | Cc1c(NC[C@@H]2CCC[C@H](c3ccc(Cl)cc3)O2)ncnc1C(=O)N1CCC(N2CCC(N(C)S(C)(=O)=O)CC2)CC1 [Example 6]
8 | 36 nM | Cc1c(NC[C@@H]2CCC[C@H](c3cccc(C(F)(F)F)c3)O2)ncnc1C(=O)N1CCC(N2CCC(N(C)S(C)(=O)=O)CC2)CC1 [Example 7]
9 | 185 nM | Cc1c(NC[C@H]2CCC[C@@H](c3cccc(C(F)(F)F)c3)O2)ncnc1C(=O)N1CCC(N2CCC(N(C)S(C)(=O)=O)CC2)CC1 [Example 8]
10 | 13 nM | Cc1ccc([C@@H]2CCC[C@H](CNc3ncnc(C(=O)N4CCC(N5CCC(NS(C)(=O)=O)CC5)CC4)c3C)O2)cc1 [Example 9]
11 | 142 nM | Cc1c(NCC2CCCC(c3ccccc3)O2)ncnc1C(=O)N1CCC(N2CCC(N(C)S(C)(=O)=O)CC2)CC1 (stereo not drawn) [Example 10]
12 | 53 nM | Cc1c(NC[C@H]2CCC[C@@H](c3ccccc3)O2)ncnc1C(=O)N1CCC(N2CCC(N(C)S(C)(=O)=O)CC2)CC1 [Example 11]
13 | 479 nM | Cc1c(NCC2CCCC(c3ccc(F)cc3)O2)ncnc1C(=O)N1CCC(N2CCC(N(C)S(C)(=O)=O)CC2)CC1 (stereo not drawn) [Example 14]
14 | 24 nM | Cc1c(NCC2CCCC(c3ccc(Cl)cc3)O2)ncnc1C(=O)N1CCC(N2CCC(N(C)S(C)(=O)=O)CC2)CC1 (stereo not drawn) [Example 15]
15 | 11 nM | Cc1ccc([C@@H]2CCC[C@H](CNc3ncnc(C(=O)N4CCC(N5CCC(N(C)S(C)(=O)=O)CC5)CC4)c3C)O2)cc1 [Example 17]
16 | 10 nM | Cc1ccc([C@@H]2CCC[C@H](CNc3nc(C)nc(C(=O)N4CCC(N5CCC(N(C)S(C)(=O)=O)CC5)CC4)c3C)O2)cc1 [Example 18]
17 | 162 nM | Cc1ccc([C@H]2CCC[C@@H](CNc3ncnc(C(=O)N4CCC(N5CCC(N(C)S(C)(=O)=O)CC5)CC4)c3C)O2)cc1 [Example 19]
18 | 11 nM | Cc1ccc([C@@H]2CCC[C@H](CNc3nc(C)nc(C(=O)N4CCC(N5CCC(N(C)S(C)(=O)=O)CC5)CC4)c3C)O2)cc1 [Example 20]
19 | 11 nM | Cc1cccc([C@@H]2CCC[C@H](CNc3ncnc(C(=O)N4CCC(N5CCC(N(C)S(C)(=O)=O)CC5)CC4)c3C)O2)c1 [Example 21]
20 | 11 nM | Cc1cccc([C@@H]2CCC[C@H](CNc3nc(C)nc(C(=O)N4CCC(N5CCC(N(C)S(C)(=O)=O)CC5)CC4)c3C)O2)c1 [Example 22]
21 | 494 nM | Cc1cccc([C@H]2CCC[C@@H](CNc3ncnc(C(=O)N4CCC(N5CCC(N(C)S(C)(=O)=O)CC5)CC4)c3C)O2)c1 [Example 23]
22 | 4 nM | Cc1c(NC[C@H]2CCC[C@@H](c3ccc(C(F)(F)F)cc3)O2)ncnc1C(=O)N1CCC(N2CCC(N(C)S(C)(=O)=O)CC2)CC1 [Example 24]
23 | 418 nM | Cc1c(NC[C@H]2CCC[C@@H](c3ccc(C(F)(F)F)nc3)O2)ncnc1C(=O)N1CCC(N2CCC(N(C)S(C)(=O)=O)CC2)CC1 [Example 25]

Row | Ki | Structure (SMILES)
24 | 6 nM | Cc1c(NC[C@H]2CCC[C@@H](c3ccc(OC(F)(F)F)cc3)O2)ncnc1C(=O)N1CCC(N2CCC(N(C)S(C)(=O)=O)CC2)CC1 [Example 26]
25 | 12 nM | CCS(=O)(=O)N(C)C1CCN(C2CCN(C(=O)c3ncnc(NC[C@H]4CCC[C@@H](c5ccc(Cl)cc5)O4)c3C)CC2)CC1 [Example 27]
26 | 658 nM | Cc1cccc([C@H]2CCC[C@@H](CNc3nc(C)nc(C(=O)N4CCC(N5CCC(N(C)S(C)(=O)=O)CC5)CC4)c3C)O2)c1 [Example 28]
27 | 45 nM | Cc1c(NC[C@@H]2CCC[C@H](c3cccc(C(F)(F)F)c3)O2)ncnc1C(=O)N1CCC(N2CCC(N(C)S(C)(=O)=O)CC2)CC1 [Example 28a]
28 | 0.5 nM | Cc1c(NCC2CCCC(c3ccc(C(F)(F)F)o3)O2)ncnc1C(=O)N1CCC(N2CCC(N(C)S(C)(=O)=O)CC2)CC1 (stereo not drawn) [Example 28b]
29 | 0.4 nM | COC1COCCC1NC1CCN(C(=O)c2ncnc(NC[C@@H]3CCC[C@H](c4ccc(C)c(F)c4)O3)c2C)CC1 (stereo partly drawn) [Example 28c]
30 | 12 nM | Cc1ccc([C@H]2CCC[C@@H](CNc3ncnc(C(=O)N4CCC(N5CCC(N(C)S(C)(=O)=O)CC5)CC4)c3C)O2)cc1F [Example 28d]
31 | 20 nM | COC1COCCC1NC1CCN(C(=O)c2ncnc(NCC3CCCC(c4ccc(C(F)(F)F)o4)O3)c2C)CC1 (stereo not drawn) [Example 28e]
32 | 78 nM | Cc1c(NC[C@@H]2CCC[C@H](c3ccc(C(C)(C)C#N)cc3)O2)ncnc1C(=O)N1CCC(N2CCC(N(C)S(C)(=O)=O)CC2)CC1 [Example 28f]
33 | 8 nM | Cc1ccc([C@@H]2CCC[C@H](CNc3cc(C(=O)N4CCC(N5CCC(N(C)S(C)(=O)=O)CC5)CC4)ncn3)O2)cc1 [Example 28g]
34 | 4 nM | CO[C@H]1COCC[C@H]1NC1CCN(C(=O)c2cc(NC[C@H]3CCC[C@@H](c4ccc(C)cc4)O3)ncn2)CC1 [Example 28h]
35 | 221 nM | CO[C@@H]1COCC[C@@H]1NC1CCN(C(=O)c2cc(NC[C@H]3CCC[C@@H](c4ccc(C)cc4)O3)ncn2)CC1 [Example 28i]
36 | 1 nM | CO[C@@H]1COCC[C@@H]1NC1CCN(C(=O)c2cc(NC[C@H]3CCC[C@@H](c4ccc(C(F)(F)F)cc4)O3)ncn2)CC1 [Example 28j]
37 | 3 nM | CO[C@H]1COCC[C@H]1NC1CCN(C(=O)c2cc(NC[C@H]3CCC[C@@H](c4ccc(C(F)(F)F)cc4)O3)ncn2)CC1 [Example 28k]
38 | 2 nM | CO[C@H]1COCC[C@H]1NC1CCN(C(=O)c2cc(NC[C@H]3CCC[C@@H](c4ccc(OC(F)(F)F)cc4)O3)ncn2)CC1 [Example 28l]
39 | 1 nM | CO[C@@H]1COCC[C@@H]1NC1CCN(C(=O)c2cc(NC[C@H]3CCC[C@@H](c4ccc(OC(F)(F)F)cc4)O3)ncn2)CC1 [Example 28m]
40 | 38 nM | COc1cc(NC[C@H]2CCC[C@@H](c3ccc(C)cc3)O2)cc(C(=O)N2CCC(N[C@H]3CCOC[C@H]3OC)CC2)n1 [Example 28n]
41 | 4 nM | CO[C@@H]1COCC[C@@H]1NC1CCN(C(=O)c2ncnc(NC[C@H]3CCC[C@@H](c4ccc(C)cc4)O3)c2C)CC1 [Example 29]
42 | 5 nM | CO[C@H]1COCC[C@H]1NC1CCN(C(=O)c2ncnc(NC[C@H]3CCC[C@@H](c4ccc(C)cc4)O3)c2C)CC1 [Example 30]
43 | 276 nM | CO[C@H]1COCC[C@H]1NC1CCN(C(=O)c2ncnc(NC[C@@H]3CCC[C@H](c4ccc(C)cc4)O3)c2C)CC1 [Example 31]
44 | 333 nM | CO[C@H]1COCC[C@H]1NC1CCN(C(=O)c2ncnc(NC[C@@H]3CCC[C@H](c4cccc(C)c4)O3)c2C)CC1 [Example 32]
45 | 148 nM | CO[C@@H]1COCC[C@@H]1NC1CCN(C(=O)c2ncnc(NC[C@@H]3CCC[C@H](c4cccc(C)c4)O3)c2C)CC1 [Example 33]

— US8765949B2, “CCR2 receptor antagonists and uses thereof” (Boehringer Ingelheim International GmbH, priority 2009, dated 2014)
